In US6794396B2, “Substituted pyridines useful for inhibiting cholesteryl ester transfer protein activity” (Pharmacia Corporation, priority 1998, dated 2004):

What follows are compounds tested against T1, CETP (Homo sapiens, UniProt P11597) (assay: CETP activity in vitro: transfer of [3H]CE from HDL donor to LDL acceptor particles). Conditions: 10 μm.
T1 construct: made in house; host or cells: CHO cells (serum-free conditioned medium)
T1 sequence (P11597 18-493): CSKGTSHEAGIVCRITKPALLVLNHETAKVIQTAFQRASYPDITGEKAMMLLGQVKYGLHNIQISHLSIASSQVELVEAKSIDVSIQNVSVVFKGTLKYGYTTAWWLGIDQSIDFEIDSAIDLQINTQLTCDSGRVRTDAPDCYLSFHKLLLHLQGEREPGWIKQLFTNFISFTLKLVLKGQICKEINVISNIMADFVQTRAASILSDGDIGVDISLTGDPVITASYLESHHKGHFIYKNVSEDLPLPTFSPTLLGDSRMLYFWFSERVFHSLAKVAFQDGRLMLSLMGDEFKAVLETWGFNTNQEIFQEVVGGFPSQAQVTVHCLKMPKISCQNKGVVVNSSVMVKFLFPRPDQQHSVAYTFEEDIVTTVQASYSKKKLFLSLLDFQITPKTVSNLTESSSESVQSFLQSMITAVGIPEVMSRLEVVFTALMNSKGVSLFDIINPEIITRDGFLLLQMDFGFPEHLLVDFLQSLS
Type: biochemical
Procedure: The ability of compounds to inhibit CETP were assessed using an in vitro assay that measured the rate of transfer of radiolabeled cholesteryl ester ([^3H]CE) from HDL donor particles to LDL acceptor particles. Details of the assay are provided by Glenn et al. (“Quantification of Cholesteryl Ester Transfer Protein (CETP): A) CETP Activity and B) Immunochemical Assay of CETP Protein,” Meth. Enzymol., Glenn and Melton (Meth. Enzymol., 263, 339-351 (1996), which is incorporated herein by reference). CETP was obtained from the serum-free conditioned medium of CHO cells transfected with a cDNA for CETP (Wang, S. et al. J. Biol Chem. 267, 17487-17490 (1992), which is incorporated herein by reference).
To measure CETP activity, [^3H]CE-labeled HDL, LDL, CETP and assay buffer (50 mM tris(hydroxymethyl)amino-methane, pH 7.4; 150 mM sodium chloride; 2 mM ethylenediamine-tetraacetic acid; 1% bovine serum albumin) were incubated in a volume of 200 μl, for 2 hours at 37° C. in 96 well plates. LDL was differentially precipitated by the addition of 50 μl of 1% (w/v) dextran sulfate/0.5 M magnesium chloride, mixed by vortex, and incubated at room temperature for 10 minutes The solution (200μl) was transferred to a filter plate (Millipore). After filtration, the radioactivity present in the precipitated LDL was measured by liquid scintillation counting.
This value was defined as the IC50.

% transfer at 10 μm	Structure (SMILES)
31^D %	COC(=O)c1c(C(F)F)nc(C(F)(F)F)c(SC(C)=O)c1CC(C)C [Compound 149, Methyl 5-(Acetylthio)-2-(difluoromethyl)-4-(2-methylpropyl)-6-(trifluoromethyl)-3-pyridinecarboxylate]

Same assay, conditions: 50% inhibition of [3H]CE transfer from HDL to LDL, 2 hours at 37° C.; read-out: IC50(μm)

IC50 [µM]	Structure (SMILES)
40	COC(=O)c1c(C(F)F)nc(C(F)(F)F)c(N=C(OC)SC)c1CC(C)C [Compound 27, Methyl 2-(Difluoromethyl)-5-{[methoxy (methylthio)methylene]amino)-4-(2-methylpropyl)-6-(trifluoromethyl)-3-pyridinecarboxylate]
80	COC(=O)c1c(C(F)F)nc(C(F)(F)F)c(CCl)c1CC(C)C [Compound 83, Methyl 5-Chloromethyl-2-(difluoromethyl)-4-(2-methylpropyl)-6-(trifluoromethyl)-3-pyridinecarboxylate]
9	COC(=O)c1c(C(F)F)nc(C(F)(F)F)c(CSc2ccc(C(C)(C)C)cc2)c1CC(C)C [Compound 3, Methyl 5-(4-t-Butylphenylthiomethyl)-2-(difluoromethyl)-4-(2-methylpropyl)-6-(trifluoromethyl)-3-pyridinecarboxylate]

Structure (SMILES)	IC50 [µM]
COC(=O)c1c(C(F)F)nc(C(F)(F)F)c(C(=O)OC)c1Cc1ccnc(SC)n1 [Compound 67, Dimethyl 2-(Difluoromethyl)-4-{[(2-methylthio)pyrimidin-4-yl]methyl}-6-(trifluoromethyl)-3,5-pyridinedicarboxylate]	60

Same assay, conditions: 2 h; read-out: % Transfer @ 100 μm

remaining activity at 100 µM [%]	Structure (SMILES)
78	COC(=O)c1c(C(F)F)nc(C(F)(F)F)c(C(=N)SC)c1CC1CC1 [Compound 112, Methyl 4-(Cyclopropylmethyl)-2-(difluoromethyl)-5-[imino(methylthio)methyl]-6-(trifluoromethyl)-3-pyridinecarboxylate]
83	COC(=O)c1c(C(F)F)nc(C(F)(F)F)c(NC(=O)c2sc(Cl)nc2C(F)(F)F)c1CC(C)C [Compound 117, Methyl {-[2-Chloro-4-(trifluoromethyl)-5-thiazolyl]carbonylamino}-2-(difluoromethyl)-4-(2-methylpropyl)-6-(trifluoromethyl)-3-pyridinecarboxylate]

Further lines, the compound ahead of its results:

Structure (SMILES)	remaining activity at 100 µM [%]
CCOC(=O)c1c(C(F)(F)F)ncc(C(=O)OC(C)C)c1O [Compound 101, 3-Ethyl 5-Isopropyl 4-hydroxy-2-(trifluoromethyl)-3,5-pyridinedicarboxylate]	71
COC(=O)c1c(C(F)F)nc(C(F)(F)F)c(C2CC(C)N(O)C2)c1CC1CC1 (stereo not shown) [Compound 107, Methyl 4-(Cyclopropylmethyl)-2-(difluoromethyl)-5-(1-hydroxy-5-methyl-3-pyrrolidinyl)-6-(trifluoromethyl)-3-pyridinecarboxylate]	75
COC(=O)c1c(C(F)F)nc(C(F)(F)F)c(C(N)=S)c1C1CCC1 [Compound 119, Methyl 5-(aminothioxomethyl)-4-(cyclobutyl)-2-(difluoromethyl)-6-(trifluoromethyl)-3-pyridinecarboxylate]	84

Same assay, conditions: IC50(μm), 50% inhibition of [3H]CE transfer from HDL to LDL, 2 hours at 37° C.

Structure (SMILES)	IC50 [µM]
CCOC(=O)c1c(C(F)F)nc(C(F)(F)F)c(C(=O)OCC)c1C1CCCCC1 [Compound 38]	50
COC(=O)c1c(C(F)F)nc(C(F)(F)F)c(C(=O)Sc2ccccc2C(C)C)c1CC(C)C [Compound 157, Methyl 2-(Difluoromethyl)-4-(2-methylpropyl)-5-{[(2-isopropylphenyl)thio]carbonyl}-6-(trifluoromethyl)-3-pyridinecarboxylate]	60
CCSc1c(C(F)(F)F)nc(C(F)F)c(C(=O)OC)c1C1CCC1 [Compound 66]	60
COC(=O)c1c(C(F)F)nc(C(F)(F)F)c(-n2cccc2)c1C1CCC1 [Compound 70, Methyl 2-(Difluoromethyl)-4-cyclobutyl-5-(1-pyrrolyl)-6-(trifluoromethyl)-3-pyridinecarboxylate]	65
COC(=O)Sc1c(C(F)(F)F)nc(C(F)F)c(C(=O)OC)c1CC(C)C [Compound 6, Methyl 2-(Difluoromethyl)-4-(2-methylpropyl)-5-[(methoxycarbonyl)thio]-6-(trifluoromethyl)-3-pyridinecarboxylate]	8
COC(=O)c1c(C(F)F)nc(C(F)(F)F)c(C(=NC(C)C)SC)c1CC(C)C [Compound 58, Methyl 2-(difluoromethyl)-5-{[isopropylimino(methylthio)methyl]}-4-(2-methylpropyl)-6-(trifluoromethyl)-3-pyridinecarboxylate]	55
COC(=O)c1c(C(F)F)nc(C(F)(F)F)c(N=S=O)c1CC(C)C [Compound 1]	2
CCCCCCCCCCCCCCCC(=O)Sc1c(C(F)(F)F)nc(C(F)F)c(C(=O)OC)c1CC(C)C [Compound 5, Methyl 2-(Difluoromethyl)-4-(2-methylpropyl)-5-(palmitoylthio)-6-(trifluoromethyl)-3-pyridinecarboxylate]	8

Same assay, conditions: IC50, Table 6, compounds of formula T-6

Structure (SMILES)	IC50 [µM]
COC(=O)c1c(C(F)F)nc(C(F)(F)F)c(CSc2ccc(Cl)cc2)c1CC(C)C [Compound 185, Methyl 5-[(4-Chlorophenyl)thiomethyl]-2-(difluoromethyl)-4-(2-methylpropyl)-6-(trifluoromethyl)-3-pyridinecarboxylate]	10

Same assay, conditions: IC50, Table 7, compounds of formula T-7

Structure (SMILES)	IC50 [µM]
COC(=O)c1c(C(F)F)nc(C(F)(F)F)c(SCc2cccc(Br)c2)c1CC(C)C [Compound 229]	50

Same assay, conditions: Table 6, compounds of formula T-6; read-out: IC50

IC50 [µM]	Structure (SMILES)
50	COC(=O)c1c(C(F)F)nc(C(F)(F)F)c(CSc2ccc(Br)cc2OC(F)(F)F)c1CC(C)C [Compound 206, Methyl 5-[(4-Bromo-2-(trifluoromethoxy)phenyl)thiomethyl]-2-(difluoromethyl)-4-(2-methylpropyl)-6-(trifluoromethyl)-3-pyridinecarboxylate]
50	COC(=O)c1c(C(F)F)nc(C(F)(F)F)c(CSc2c(F)c(F)cc(F)c2F)c1CC(C)C [Compound 186, Methyl 5-[(2,3,5,6-Tetrafluorophenyl)thiomethyl]-2-(difluoromethyl)-4-(2-methylpropyl)-6-(trifluoromethyl)-3-pyridinecarboxylate]
20	COC(=O)c1c(C(F)F)nc(C(F)(F)F)c(CSc2ccc(Br)cc2)c1CC(C)C [Compound 193, Methyl 5-[(4-Bromophenyl)thiomethyl]-2-(difluoromethyl)-4-(2-methylpropyl)-6-(trifluoromethyl) -3-pyridinecarboxylate]
10	COC(=O)c1c(C(F)F)nc(C(F)(F)F)c(CSc2nc3ccc(C)cc3[nH]2)c1CC(C)C [Compound 209, Methyl 5-[(5-Methylbenzimidazol-2-yl)thiomethyl]-2-(difluoromethyl)-4-(2-methylpropyl)-6-(trifluoromethyl)-3-pyridinecarboxylate]
25	COC(=O)c1c(C(F)F)nc(C(F)(F)F)c(CSc2nc3ccc([N+](=O)[O-])cc3[nH]2)c1CC(C)C [Compound 190, Methyl 5-[(5-Nitrobenzimidazol-2-yl)thiomethyl]-2-(difluoromethyl)-4-(2-methylpropyl)-6-(trifluoromethyl)-3-pyridinecarboxylate]
45	COC(=O)c1c(C(F)F)nc(C(F)(F)F)c(CSc2cccc(OC)c2)c1CC(C)C [Compound 211, Methyl 5-[(3-Methoxyphenyl)thiomethyl]-2-(difluoromethyl)-4-(2-methylpropyl)-6-(trifluoromethyl)-3-pyridinecarboxylate]

Same assay, conditions: Table 7, compounds of formula T-7; read-out: IC50

IC50 [µM]	Structure (SMILES)
20	COC(=O)c1c(C(F)F)nc(C(F)(F)F)c(SCc2ccc(Cl)cc2)c1CC(C)C [Compound 220]

Same assay, conditions: Table 8; read-out: IC50

IC50 [µM]	Structure (SMILES)
> 100	CCOC(=O)c1c(C(F)(F)F)nc(C(F)F)c(C(O)c2ccc(C(F)(F)F)cc2)c1-c1ccccc1 (stereo not shown) [Compound 296]
30	O=C(c1ccc(Cl)cc1)c1c(C(F)(F)F)nc(C(F)F)c(CO)c1-c1ccccc1 [Compound 264]
11.7	O=Cc1c(C(F)F)nc(C(F)(F)F)c(C(=O)c2ccc3ccccc3c2)c1-c1ccccc1 [Compound 286]
70	CCOC(=O)c1c(C(F)(F)F)nc(C(F)F)c(C(F)c2ccc(C(C)C)cc2)c1-c1ccccc1 (stereo not shown) [Compound 271]
